The text below walks through data of patent US20220220152A1, “BIVALENT ANTAGONISTS OF INHIBITORS OF APOPTOSIS PROTEINS” (Hepagene Therapeutics (HK) Limited, priority 2019, published 2022).

One assay deals with T1, XIAP-BIR3 (Homo sapiens, UniProt P98170).
T1 construct: XIAP-BIR3; purchased Reaction Biology APT-11-374
Kind of assay: XIAP-BIR3 fluorescence polarization binding assay. The settings on record: FP, probe AbuRPFK-5FAM (SM5F) 5 nM, XIAP-BIR3 40 nM, 60 min at 25° C. The source says:
(§1) IAPs are one main cause of cancer development and may result from overexpression of anti-apoptotic proteins. This protocol establishes three binding assays for […] Bir3 domain, cIAP1 and cIAP2 using FP (fluorescence polariation) technology. The fluorescence probe used is a synthetic peptide conjugated to 5-carboxyfluorescein (AbuRPFK-5FAM). The fluorescence polarization value (mP) was detected by Envision, which was used to reflect the binding degree of protein and fluorescent marker.
(§2) • a. Prepare 100 times of the final cpd concentration in appropriate tube and transfer 5 uL cpd to 45 μL 1× reaction buffer with 10% DMSO • b. The final reference cpd concentration is 10000, 3333.3, 1111.1, 370.4, 123.4, 41.2, 13.7, 4.57, 1.52, 0.51, 0.17 and 0 nM. So the 100 times of the concentration is 1000, 333.3, 111.1, 37.04, 12.34, 4.12, […], 0.15, 0.05, 0.017 and 0 μM. The final test cpds concentration is 3333.3, 1111.1, 370.4, 123.4, 41.2, 13.7, 4.57, 1.52, 0.51, 0.17, 0.057 and 0 nM. So the 100 times of the concentration is 333.3, 111.1, 37.04, 12.34, 4.12, […], 0.15, 0.05, 0.017, 0.0057 and […] • c. Add 8 μL/well each dose enzyme to 384 wen microplate (ProxiPlate-384 F Plus, 6008260) using multichannel pipette, prepared in Table 3. • d. Centrifuge at 1000 rpm • e. Add 2 μL/well cpd to 384 well microplate (ProxiPlate-384 F Plus, 6008260) using multichannel pipette, prepared in step a). • f. Centrifuge at 1000 rpm RT, 15 min. • g Start the assay by adding 10 uL/well substrate (prepared in Table 4) to the same 384 wen microplate using multichannel pipette. • h. Centrifuge at 1000 rpm. • i. Cover the assay plate and incubate for 60 min at 25° C. • j. Read on Envision 2104 for mP and plot the IC50s with mP values. • k. Data analysis: IC50s were determined based on a non-linear regression analysis of data collected.
In general terms: In fluorescence polarisation assays a small probe gives low polarisation when free and higher when bound to something large.

For a further assay, the target named is T2, cIAP1-BIR3 (Homo sapiens, UniProt Q13490).
T2 construct: cIAP1-BIR3; purchased Reaction Biology APT-11-370
T2 sequence (Q13490 253-363 limits assumed): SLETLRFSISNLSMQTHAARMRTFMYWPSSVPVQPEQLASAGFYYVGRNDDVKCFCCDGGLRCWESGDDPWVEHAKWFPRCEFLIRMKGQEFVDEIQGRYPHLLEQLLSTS
Kind of assay: cIAP1-BIR3 fluorescence polarization binding assay. The settings on record: FP, probe AbuRPFK-5FAM (SM5F) 5 nM, cIAP1-BIR3 15 nM, 60 min at 25° C.
Text: as §1, §2

Another assay has as its target T3, cIAP2-BIR3 (Homo sapiens, UniProt Q13489).
T3 construct: cIAP2-BIR3; purchased Reaction Biology APT-11-372
Kind of assay: cIAP2-BIR3 fluorescence polarization binding assay. The settings on record: FP, probe AbuRPFK-5FAM (SM5F) 5 nM, cIAP2-BIR3 80 nM, 60 min at 25° C.
Text: as §1, §2

T3 sequence (Q13489 238-349 limits assumed): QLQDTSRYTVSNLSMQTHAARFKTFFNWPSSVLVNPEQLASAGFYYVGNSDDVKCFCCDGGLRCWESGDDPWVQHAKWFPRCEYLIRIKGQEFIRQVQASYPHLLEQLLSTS
T1 sequence (P98170 241-356 limits assumed): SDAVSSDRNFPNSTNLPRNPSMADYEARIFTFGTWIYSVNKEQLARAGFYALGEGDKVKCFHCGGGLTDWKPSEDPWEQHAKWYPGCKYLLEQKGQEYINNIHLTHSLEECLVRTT

In the case of `CN[C@@H](C)C(=O)N[C@H](C(=O)N1C[C@@H](O)C[C@H]1C(=O)N[C@@H]1CCCc2c(OC/C=C/COc3cccc4c3CCC[C@H]4NC(=O)[C@@H]3C[C@H](O)CN3C(=O)[C@@H](NC(=O)[C@H](C)NC)C3CCCCC3)cccc21)C1CCCCC1` [Compound I-E, (2S,4S)-1-[(2S)-2-cyclohexyl-2-[(2S)-2-(methylamino)propanamido]acetyl]-N-[(1R)-5-[[(2E)-4-[[(5R)-5-[(2S,4S)-1-[(2S)-2-cyclohexyl-2-[(2S)-2-(methylamino)propanamido]acetyl]-4-hydroxypyrrolidine-2-amido]-5,6,7,8-tetrahydronaphthalen-1-yl]oxy]but-2-en-1-yl]oxy]-1,2,3,4-tetrahydronaphthalen-1-yl]-4-hydroxypyrrolidine-2-carboxamide], the 50% inhibitory concentration (IC50) on XIAP-BIR3 fell in the range of 10 to 100 nM; at cIAP1-BIR3 it was 1 to 10 nM; on cIAP2-BIR3, 10 to 100 nM.

Turning to `CC[C@H](NC(=O)[C@H](C)NC)C(=O)N1CCC[C@H]1C(=O)N[C@@H]1CCCc2c(Nc3cccc4c3CCC[C@H]4NC(=O)[C@@H]3CCCN3C(=O)[C@H](CC)NC(=O)[C@H](C)NC)cccc21` [Compound VI-C, (2S,2'S)—N,N′-((1R,1′R)-azanediylbis(1,2,3,4-tetrahydronaphthalene-5,1-diyl))bis(1-((S)-2-((S)-2-(methylamino)propanamido)butanoyl)pyrrolidine-2-carboxamide)], the IC50 was 10 to 100 nM on XIAP-BIR3, 1 to 10 nM on cIAP1-BIR3 and 10 to 100 nM at cIAP2-BIR3.

Consider `CN[C@@H](C)C(=O)N[C@H](C(=O)N1CCC[C@H]1C(=O)N[C@@H]1CCCc2c(-c3cccc(-c4cccc5c4CCC[C@H]5NC(=O)[C@@H]4CCCN4C(=O)[C@@H](NC(=O)[C@H](C)NC)C(C)(C)C)c3)cccc21)C(C)(C)C` [Compound III-F, (2S)-1-[(2S)-3,3-dimethyl-2-[(2S)-2-(methylamino)propanamido]butanoyl]-N-[(1R)-5-[3-[(5R)-5-[(2S)-1-[(2S)-3,3-dimethyl-2-[(2S)-2-(methylamino)propanamido]butanoyl]pyrrolidine-2-amido]-5,6,7,8-tetrahydronaphthalen-1-yl]phenyl]-1,2,3,4-tetrahydronaphthalen-1-yl]pyrrolidine-2-carboxamide], for which the IC50 lay within 10 to 100 nM on XIAP-BIR3, 1 to 10 nM on cIAP1-BIR3 and 10 to 100 nM on cIAP2-BIR3.

`CN[C@@H](C)C(=O)NC(C(=O)N1CCC[C@H]1C(=O)N[C@@H]1CCCc2cc(N3CCN(c4ccc5c(c4)CCC[C@H]5NC(=O)[C@@H]4CCCN4C(=O)[C@@H](NC(=O)[C@H](C)NC)C4CCCCC4)CC3)ccc21)C1CCCCC1` (stereo partly drawn) [VIII-B, (2S)-1-[(2S)-2-cyclohexyl-2-[(2S)-2-(methylamino)propanamido]acetyl]-N-[1(1R)-6-[4-[(5R)-5-[(2S)-1-[(2S)-2-cyclohexyl-2-[(2S)-2-(methylamino)propanamido]acetyl]pyrrolidine-2-amido]-5,6,7,8-tetrahydronaphthalen-2-yl]piperazin-1-yl]-1,2,3,4-tetrahydronaphthalen-1-yl]pyrrolidine-2-carboxamide]: the IC50 is over 1000 nM on XIAP-BIR3, 10 to 100 nM at cIAP1-BIR3 and 100 to 1000 nM at cIAP2-BIR3.

With “(2S,4S)-1-((S)-2-cyclohexyl-2-((S)-2-(methylamino)propanamido)acetyl)-N—((R)-5-(2-(2-(((R)-5-((2S,4S)-1-((S)-2-cyclohexyl-2-((S)-2-(methylamino)propanamido)acetyl)-4-hydroxypyrrolidine-2-carboxamido)-5,6,7,8-tetrahydronaphthalen-1-yl)oxy)ethoxy) ethoxy)-1,2,3,4-tetrahydmnaphthalen-1-yl)-4-hydroxypyrrolidine-2-carboxamide Formic Acid [Compound II-C]”, the 50% inhibitory concentration (IC50) on XIAP-BIR3 was in the range of 10 to 100 nM; on cIAP1-BIR3, 1 to 10 nM; at cIAP2-BIR3 it was 10 to 100 nM.

As for `CN[C@@H](C)C(=O)N[C@H](C(=O)N1CCC[C@H]1C(=O)N[C@@H]1CCCc2c(OCC#CCOc3cccc4c3CCC[C@H]4NC(=O)[C@@H]3CCCN3C(=O)[C@@H](NC(=O)[C@H](C)NC)C3CCCCC3)cccc21)C1CCCCC1` [Compound IV-B, (S)-1-((S)-2-Cyclohexyl-2-((S)-2-(methylamino)propanamido)acetyl)-N—((R)-5-(4-((R)-5-((S)-1-((S)-2-cyclohexyl-2-((S)-2-(methylamino)propanamido)acetyl)pyrrolidine-2-carboxamido)-5,6,7,8-tetrahydronaphthalen-1-yloxy)but-2-ynyloxy)-1,2,3,4-tetrahydronaphthalen-1-yl)pyrrolidine-2-carboxamide], the IC50 lay within 10 to 100 nM on XIAP-BIR3, 1 to 10 nM on cIAP1-BIR3 and 10 to 100 nM on cIAP2-BIR3.

As for `CN[C@@H](C)C(=O)N[C@H](C(=O)N1CCC[C@H]1C(=O)N[C@@H]1CCCc2c(Oc3cccc4c3CCC[C@H]4NC(=O)[C@@H]3CCCN3C(=O)[C@@H](NC(=O)[C@H](C)NC)C3CCOCC3)cccc21)C1CCOCC1` [Compound X-C, (S)-1-((S)-2-((S)-2-(methylamino)propanamido)-2-(tetrahydro-2H-pyran-4-yl)acetyl)-N—((R)-5-(((R)-5-((S)-1-((S)-2-((S)-2-(methylamino)propanamido)-2-(tetrahydro-2H-pyran-4-yl)acetyl)pyrrolidine-2-carboxamido)-5,6,7,8-tetrahydronaphthalen-1-yl)oxy)-1,2,3,4-tetrahydronaphthalen-1-yl)pyrrolidine-2-carboxamide], the figures for the IC50 on XIAP-BIR3, on cIAP1-BIR3 and at cIAP2-BIR3 were 10 to 100 nM, 1 to 10 nM and 10 to 100 nM, respectively.

Consider `CN[C@@H](C)C(=O)N[C@H](C(=O)N1C[C@@H](O)C[C@H]1C(=O)N[C@@H]1CCCc2c(OCCCCCOc3cccc4c3CCC[C@H]4NC(=O)[C@@H]3C[C@H](O)CN3C(=O)[C@@H](NC(=O)[C@H](C)NC)C3CCCCC3)cccc21)C1CCCCC1` [Compound I-B, (2S,4S)-1-((S)-2-cyclohexyl-2-((S)-2-(methylamino)propanamido)acetyl)-N—((R)-5-((5-(((R)-5-((2S,4S)-1-((S)-2-cyclohexyl-2-((S)-2-(methylamino)propanamido)acetyl)-4-hydroxypyrrolidine-2-carboxamido)-5,6,7,8-tetrahydronaphthalen-1-yl)oxy)pentyl)oxy)-1,2,3,4-tetrahydronaphthalen-1-yl)-4-hydroxypyrrolidine-2-carboxamide], for which the IC50 was 100 to 1000 nM on XIAP-BIR3, 1 to 10 nM on cIAP1-BIR3 and 10 to 100 nM on cIAP2-BIR3.

In the case of `CN[C@@H](C)C(=O)N[C@@H](C)C(=O)N1CCC[C@H]1C(=O)N[C@@H]1CCCc2c(-c3cccc4c3CCC[C@H]4NC(=O)[C@@H]3CCCN3C(=O)[C@H](C)NC(=O)[C@H](C)NC)cccc21` [Compound V-H, (2S)-1-[(2S)-2-[(2S)-2-(methylamino)propanamido]propanoyl]-N-[(5R,5′R)-5′-[(2S)-1-[(2S)-2-[(2S)-2-(methylamino)propanamido]propanoyl]pyrrolidine-2-amido]-5H,5′H,6H,6′H,7H,7′H,8H,8′H-[1,1′-binaphthalen]-5-yl]pyrrolidine-2-carboxamide], the IC50 lay in the range of 100 to 1000 nM at XIAP-BIR3, 1 to 10 nM at cIAP1-BIR3 and 10 to 100 nM at cIAP2-BIR3.

Turning to `CN[C@@H](C)C(=O)N[C@H](C(=O)N1CCC[C@H]1C(=O)N[C@@H]1CCCc2c(OCCCCCOc3cccc4c3CCC[C@H]4NC(=O)[C@@H]3CCCN3C(=O)[C@@H](NC(=O)[C@H](C)NC)C(C)C)cccc21)C(C)C` [Compound I-G, (2S)-1-[(2S)-3-methyl-2-[(2S)-2-(methylamino)propanamido]butanoyl]-N-[(1R)-5-[(5-[[(5R)-5-[(2S)-1-[(2S)-3-methyl-2-[(2S)-2-(methylamino)propanamido]butanoyl]pyrrolidine-2-amido]-5,6,7,8-tetrahydronaphthalen-1-yl]oxy]pentyl)oxy]-1,2,3,4-tetrahydronaphthalen-1-yl]pyrrolidine-2-carboxamide], the half-inhibitory concentration (IC50) lay within 10 to 100 nM at XIAP-BIR3, 1 to 10 nM at cIAP1-BIR3 and 10 to 100 nM on cIAP2-BIR3.

Broadly, the IC50 is the midpoint of a concentration-inhibition curve.
